In US12264156B2, “Compounds and pharmaceutical compositions thereof for the treatment of diseases” (GALAPAGOS NV, priority 2018, dated 2025):

Tested on: IL-23 induced psoriatic-like epidermal hyperplasia
Test: Murine model of psoriatic-like epidermal hyperplasia induced by intradermal injections of IL-23
Type: in vivo, mouse
Conditions: 10 mg/kg p.o. b.i.d.
Method: Mouse recombinant IL-23, carrier free (Cat #14-8231) is provided by e-Bioscience (Frankfurt, Germany).
Balb/c mice (female, 18-20 g body weight) were obtained from Janvier Labs (Le Genest-Saint-Isle, France). Mice are kept on a 12 h light/dark cycle. Temperature was maintained at 22° C., food and water are provided ad libitum.
The design of the study was adapted from Rizzo H L. et al. (Rizzo et al. 2011). On the first day (D1), the mice were shaved around the two ears. For 4 consecutive days (D1 to D4), the mice received a daily intradermal dose of mouse recombinant IL-23 (1 μg/20 μL in PBS/0.1% BSA) in the right pinna ear and 20 μL of PBS/0.1% BSA in the left pinna ear under anesthesia.
From D1 to D5, mice were dosed with test-compound or with vehicle, 1 h prior IL-23 injection.
The thickness of both ears was measured daily with an automatic caliper. Body weight was assessed at initiation and at sacrifice. On fifth day, 2 h after the last dosing, the mice were sacrificed. The pinnae of the ear were cut, excluding cartilage. The pinnae, placed in a vial containing 1 mL of RNAlater® solution.
There were 8 mice per group. The results were expressed as mean±SEM and statistical analysis was performed using one-way ANOVA followed by Dunnett's post-hoc test versus IL-23 vehicle groups.

SMILES: COc1cc(-c2cnc3cc(OCCN4CCOCC4)ccn23)cc2c1C(=O)N(CC(F)(F)F)CC2 [Cpd 88, 8-methoxy-6-[7-(2-morpholinoethoxy)imidazo [1,2-a]pyridin-3-yl]-2-(2,2,2-trifluoroethyl)-3,4-dihydroisoquinolin-1-one]
- ear thickness compared to IL-23 vehicle group: statistically significant decrease of the ear thickness
